Assay results reported in EPA's ToxRefDB 2.

Legend:
dog [1] = conditions: Subchronic oral toxicity in nonrodent, beagle, Feed, dose end: 103 day, group: systemic
rat [2] = conditions: Multigenerational reproductive toxicity study, sprague dawley, Oral, Feed, dose end: 2 generation
rat [3] = conditions: Prenatal developmental toxicity study, sprague dawley, Oral, Gavage/Intubation, dose end: 15 GD
rabbit [4] = conditions: Prenatal developmental toxicity study, new zealand white, Oral, Gavage/Intubation, dose end: 28 GD
rat [5] = conditions: Subchronic oral toxicity in rodents, sprague dawley, Feed, dose end: 90 day, group: systemic, systemic / clinical chemistry / cholesterol / cholesterol + systemic / in life observation / body weight / body weight + systemic / in life …
rat [6] = conditions: Sub-acute repeat dose toxicity, Oral, Gavage/Intubation, dose end: 34 day, group: systemic
rabbit [7] = conditions: Sub-acute repeat dose toxicity; Oral; Gavage/Intubation; dose end: 4 day; group: systemic; systemic / hematology / erythrocyte (rbc) count differential / erythrocyte (rbc) + systemic / hematology / hematocrit (hct) / hematocrit (…
primate [8] = conditions: Sub-acute repeat dose toxicity, Oral, Gavage/Intubation, dose end: 28 day, group: systemic
rat [9] = conditions: Sub-acute repeat dose toxicity; Oral; Gavage/Intubation; dose end: 10 day; group: systemic; systemic / hematology / erythrocyte (rbc) count differential / erythrocyte (rbc) + systemic / hematology / hematocrit (hct) / hematocrit (…
primate [10] = conditions: Sub-acute repeat dose toxicity; Oral; Gavage/Intubation; dose end: 10 day; group: systemic; systemic / clinical chemistry / [other] / [other] + systemic / clinical chemistry / apolipoprotein a1 / apolipoprotein a1 + systemic / …
rat [11] = conditions: Sub-acute repeat dose toxicity, sprague dawley, Oral, Gavage/Intubation, dose end: 12 day, group: systemic
dog [12] = conditions: Sub-acute repeat dose toxicity, beagle, Oral, Gavage/Intubation, dose end: 15 day, group: systemic
rat [13] = conditions: Subchronic oral toxicity in rodents, sprague dawley, Gavage/Intubation, dose end: 91 day, group: systemic
mouse = conditions: Sub-acute repeat dose toxicity; Oral; Feed; dose end: 10 day; group: systemic; systemic / in life observation / body weight / body weight + systemic / in life observation / food consumption / food consumption
rat [14] = conditions: Sub-acute repeat dose toxicity, sprague dawley, Oral, Feed, dose end: 10 day, group: systemic
rabbit [15] = conditions: Sub-acute repeat dose toxicity; new zealand white; Oral; Gavage/Intubation; dose end: 4 day; group: systemic; systemic / in life observation / clinical signs / erythema + systemic / in life observation / clinical signs / tachypnea
rat [16] = conditions: Sub-acute repeat dose toxicity, sprague dawley, Oral, Gavage/Intubation, dose end: 14 day, group: systemic
dog [17] = conditions: Subchronic oral toxicity in nonrodent, beagle, Gavage/Intubation, dose end: 91 day, group: systemic
[18] = systemic / clinical chemistry / albumin / albumin + systemic / clinical chemistry / calcium / calcium + systemic / clinical chemistry / …
[19] = group: offspring, developmental / offspring survival late / viability index / viability index + systemic / in life observation / body weight / offspring (pup…
[20] = group: parental, systemic / in life observation / body weight / body weight gain + systemic / organ weight / liver / relative to body weight
[21] = group: developmental, developmental / developmental malformation / bone / enlarged fontanel + developmental / developmental malformation / bone / incomplete …
[22] = group: maternal, systemic / in life observation / body weight / body weight gain
[23] = group: maternal, systemic / in life observation / body weight / body weight gain + systemic / in life observation / body weight / body weight + systemic / in…
[24] = group: developmental, developmental / offspring survival late / lactation index / lactation index + developmental / offspring survival late / viability index / …
[25] = group: maternal, reproductive / offspring survival early / dead fetuses / dead fetuses
[26] = systemic / clinical chemistry / [other] / [other] + systemic / clinical chemistry / globulins / globulins + systemic / clinical chemistry / …
[27] = systemic / in life observation / body weight / body weight + systemic / clinical chemistry / [other] / [other] + systemic / clinical …
[28] = systemic / in life observation / clinical signs / pulse/pressure + systemic / clinical chemistry / albumin / albumin + systemic / hematology…
[29] = systemic / in life observation / clinical signs / pulse/pressure + systemic / in life observation / clinical signs / arrhythmia + systemic…
[30] = systemic / in life observation / clinical signs / salivation
[31] = systemic / in life observation / clinical signs / salivation + systemic / in life observation / food consumption / food consumption + …
[32] = systemic / in life observation / clinical signs / arrhythmia + systemic / in life observation / clinical signs / emesis
[33] = systemic / in life observation / clinical signs / arrhythmia + systemic / in life observation / clinical signs / emesis + systemic / in life…
[34] = systemic / organ weight / heart / absolute + systemic / pathology microscopic / thyroid gland / hypertrophy + systemic / in life observation…
[35] = systemic / in life observation / body weight / body weight + systemic / in life observation / clinical signs / drooping eyelids (ptosis) + …
[36] = systemic / in life observation / body weight / body weight + systemic / in life observation / clinical signs / lacrimation or red-colored …
[37] = systemic / pathology microscopic / blood vessel / arteritis + systemic / in life observation / body weight / body weight
[38] = systemic / clinical chemistry / alkaline phosphatase (alp/alk) / alkaline phosphatase (alp/alk) + systemic / clinical chemistry / bilirubin…
[39] = systemic / in life observation / clinical signs / emesis

Structure (SMILES): CCNS(=O)(=O)C(F)(F)C(F)(F)C(F)(F)C(F)(F)C(F)(F)C(F)(F)C(F)(F)C(F)(F)F [Sulfluramid]
- LOAEL (dog [1]; [18]): > 23.2 mg/kg/day
- NOAEL (dog [1]; [18]): ≥ 23.2 mg/kg/day
- LEL (dog [1]; systemic / organ weight / liver / relative to body weight + systemic / clinical chemistry / calcium / calcium): 2.52 mg/kg/day
- LEL (rat [2]; [19]): 1.34 mg/kg/day
- LOAEL (rat [2]; [19]): 1.34 mg/kg/day
- NEL (rat [2]; [19]): 0.45 mg/kg/day
- NOAEL (rat [2]; [19]): 0.45 mg/kg/day
- LEL (rat [2]; [20]): 1.34 mg/kg/day
- LOAEL (rat [2]; [20]): 1.34 mg/kg/day
- NEL (rat [2]; [20]): 0.45 mg/kg/day
- NOAEL (rat [2]; [20]): 0.45 mg/kg/day
- LEL (rat [3]; [21]): 13.3 mg/kg/day
- LOAEL (rat [3]; [21]): 13.3 mg/kg/day
- NEL (rat [3]; [21]): 3.3 mg/kg/day
- NOAEL (rat [3]; [21]): 3.3 mg/kg/day
- LEL (rat [3]; [22]): 3.3 mg/kg/day
- LOAEL (rat [3]; [22]): 3.3 mg/kg/day
- NEL (rat [3]; [23]): 0.8 mg/kg/day
- NOAEL (rat [3]; [23]): 0.8 mg/kg/day
- LEL (rabbit [4]; [24]): 0.3 mg/kg/day
- LOAEL (rabbit [4]; [24]): 0.3 mg/kg/day
- NEL (rabbit [4]; [24]): < 0.3 mg/kg/day
- NOAEL (rabbit [4]; [24]): < 0.3 mg/kg/day
- LEL (rabbit [4]; [25]): 0.3 mg/kg/day
- LOAEL (rabbit [4]; [25]): 0.3 mg/kg/day
- NEL (rabbit [4]; [25]): < 0.3 mg/kg/day
- NOAEL (rabbit [4]; [25]): < 0.3 mg/kg/day
- LEL (rat [5]): 2.5 mg/kg/day
- LOAEL (rat [5]): 2.5 mg/kg/day
- NEL (rat [5]): 0.5 mg/kg/day
- NOAEL (rat [5]): 0.5 mg/kg/day

Structure (SMILES): CC(C)c1nnc2ccc(-c3ocnc3-c3cc(F)ccc3F)cn12
- LEL (rat [6]; [26]): 100 mg/kg/day
- NEL (rat [6]; [26]): < 100 mg/kg/day
- LOAEL (rat [6]; [27]): > 2000 mg/kg/day
- NOAEL (rat [6]; [27]): ≥ 2000 mg/kg/day
- LEL (rabbit [7]): 40 mg/kg/day
- LOAEL (rabbit [7]): > 80 mg/kg/day
- NEL (rabbit [7]): 20 mg/kg/day
- NOAEL (rabbit [7]): ≥ 80 mg/kg/day
- LEL (primate [8]; [28]): 30 mg/kg/day
- NEL (primate [8]; [28]): < 30 mg/kg/day
- LOAEL (primate [8]; [29]): > 500 mg/kg/day
- NOAEL (primate [8]; [29]): ≥ 500 mg/kg/day
- LOAEL (rat [9]): > 2000 mg/kg/day
- NEL (rat [9]): < 250 mg/kg/day
- NOAEL (rat [9]): ≥ 2000 mg/kg/day
- LEL (primate [10]): 1000 mg/kg/day
- LOAEL (primate [10]): > 1000 mg/kg/day
- NEL (primate [10]): 300 mg/kg/day
- NOAEL (primate [10]): ≥ 1000 mg/kg/day

Structure (SMILES): CCCOc1ccc(S(=O)(=O)N2CCN(CC)CC2)cc1-c1nc2c(CC)n(Cc3ccccn3)nc2c(=O)[nH]1
- LEL (rat [11]; [30]): 100 mg/kg/day
- NEL (rat [11]; [30]): < 100 mg/kg/day
- LOAEL (rat [11]; [31]): > 400 mg/kg/day
- NOAEL (rat [11]; [31]): ≥ 400 mg/kg/day
- LEL (dog [12]; [32]): 15 mg/kg/day
- NEL (dog [12]; [32]): < 15 mg/kg/day
- LOAEL (dog [12]; [33]): > 150 mg/kg/day
- NOAEL (dog [12]; [33]): ≥ 150 mg/kg/day
- NEL (rat [13]; systemic / organ weight / heart / absolute + systemic / pathology microscopic / thyroid gland / hypertrophy): 25 mg/kg/day
- LEL (rat [13]; [34]): 100 mg/kg/day
- LOAEL (rat [13]; [34]): > 400 mg/kg/day
- NOAEL (rat [13]; [34]): ≥ 400 mg/kg/day
- LEL (mouse): 2000 mg/kg/day
- LOAEL (mouse): > 2000 mg/kg/day
- NOAEL (mouse): ≥ 2000 mg/kg/day
- LOAEL (rat [14]; [35]): > 2000 mg/kg/day
- NOAEL (rat [14]; [35]): ≥ 2000 mg/kg/day
- LEL (rat [14]; [36]): 500 mg/kg/day
- NEL (rat [14]; [36]): < 500 mg/kg/day
- LEL (rabbit [15]): 400 mg/kg/day
- LOAEL (rabbit [15]): > 400 mg/kg/day
- NEL (rabbit [15]): < 400 mg/kg/day
- NOAEL (rabbit [15]): ≥ 400 mg/kg/day
- NEL (rat [16]; systemic / pathology microscopic / blood vessel / arteritis): 45 mg/kg/day
- LEL (rat [16]; [37]): 200 mg/kg/day
- LOAEL (rat [16]; [37]): > 200 mg/kg/day
- NOAEL (rat [16]; [37]): ≥ 200 mg/kg/day
- LOAEL (dog [17]; [38]): > 100 mg/kg/day
- NOAEL (dog [17]; [38]): ≥ 100 mg/kg/day
- LEL (dog [17]; [39]): 10 mg/kg/day
- NEL (dog [17]; [39]): < 10 mg/kg/day
